Assay results: patent publication US12421249B2, “Inhibitors of APOL1 and methods of using same” (Vertex Pharmaceuticals Incorporated, priority 2020, dated 2025)
Like-named read-outs stand apart in the source and are kept apart here.

How the values were obtained:
APOL1 G1 = target: T1, APOL1 G1 (Homo sapiens, UniProt O14791, I384M/S342G); experiment: Trypanosoma brucei brucei Lysis Assay Using APOL1 Recombinant Protein (AlamarBlue viability readout); type: cell-based; conditions: for IC50: IP50 = IC50 for cell proliferation, read-out: Trypanosome Assay IP50; for Emax: read-out: Trypanosome Assay Max Activity (%)
T1 sequence (O14791 28-398 S342G/I384M): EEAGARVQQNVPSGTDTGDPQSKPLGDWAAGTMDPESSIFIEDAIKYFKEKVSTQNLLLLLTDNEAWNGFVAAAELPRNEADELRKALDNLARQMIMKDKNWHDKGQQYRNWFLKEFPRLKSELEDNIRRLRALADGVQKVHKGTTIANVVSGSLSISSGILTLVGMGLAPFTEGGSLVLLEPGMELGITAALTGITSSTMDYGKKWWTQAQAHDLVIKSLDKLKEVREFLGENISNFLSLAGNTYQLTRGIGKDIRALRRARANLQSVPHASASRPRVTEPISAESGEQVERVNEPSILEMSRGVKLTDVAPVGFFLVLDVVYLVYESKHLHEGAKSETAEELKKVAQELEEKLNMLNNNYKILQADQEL
Method in brief: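 Percent viability comes from AlamarBlue (resazurin→resorufin) fluorescence interpolated on a standard curve of known parasite numbers, with no-APOL1 wells as 100%. Parasites (Lister 427 bloodstream form, 120,000/well, serum-free assay medium) meet 0.05 μg/mL APOL1 (~EC90). Compounds span a 10-point series, 0.1% DMSO final.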

APOL1 = target: T2, APOL1 (Homo sapiens, UniProt O14791); experiment: Multi-Tox Assay (MultiTox-Fluor Multiplex Cytotoxicity Assay in tet-inducible APOL1 T-REx-HEK293 cells; Table 46 does not say which APOL1 variant G0/G1/G2); type: cell-based; conditions: APOL1 variant not given; for IC50: IP50 = IC50 for cell proliferation
T2 sequence (O14791 1-398 S342G/I384M): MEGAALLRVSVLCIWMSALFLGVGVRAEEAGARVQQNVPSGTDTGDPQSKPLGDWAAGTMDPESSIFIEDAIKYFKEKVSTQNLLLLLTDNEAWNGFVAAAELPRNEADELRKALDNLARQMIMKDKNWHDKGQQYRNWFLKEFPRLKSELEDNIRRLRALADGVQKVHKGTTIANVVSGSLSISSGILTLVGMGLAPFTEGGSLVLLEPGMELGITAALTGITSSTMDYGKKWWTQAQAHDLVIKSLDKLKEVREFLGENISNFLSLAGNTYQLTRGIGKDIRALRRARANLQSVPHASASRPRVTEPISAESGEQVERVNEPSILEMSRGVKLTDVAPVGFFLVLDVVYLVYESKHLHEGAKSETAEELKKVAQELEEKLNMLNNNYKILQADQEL

Compound	IC50 (APOL1 G1; Trypanosome Assay)	Emax (APOL1 G1; Trypanosome Assay)	Multi-Tox Assay Max Activity (%) (APOL1)	IC50 (APOL1)	IC90 (APOL1)	Trypanosome Assay Max Activity (%) (APOL1 G1; Trypanosome Assay)	Emax (APOL1 G1)
Cc1nc2c([C@@H]3C[C@]4(C[C@H](C)N3)OCCc3cc(Cl)sc34)cccc2o1 (racemic) [Compound 170]	> 0.5 µM	71.5%	89.7%	> 0.5 µM			
CCOc1cc([C@@H]2C[C@]3(C[C@H](C)N2)OCCc2cc(Cl)sc23)ccc1O (racemic) [Compound 102]	< 0.05 µM	112%	99.8%	< 0.05 µM			
COCC1CC2(CC(c3cn(C)nn3)N1)OCCc1cc(Cl)sc12 (centres unmarked) [Compound 190]	> 0.5 µM	92.5%		0.05 to 0.5 µM			
C[C@H]1C[C@@]2(C[C@@H](c3ccccn3)N1)OCCc1cc(Cl)sc12 (racemic) [Compound 83]	< 0.05 µM	111%		< 0.05 µM			
C[C@H]1C[C@@]2(C[C@@H](c3cn(C)c(=O)n(C)c3=O)N1)OCCc1cc(Cl)sc12 (racemic) [Compound 124]	0.05 to 0.5 µM	104%	99.3%	0.05 to 0.5 µM			
C[C@H]1C[C@@]2(C[C@@H](c3ccc4c(c3)n(C)c(=O)n4C)N1)OCCc1cc(Cl)sc12 (racemic) [Compound 32]	< 0.05 µM	116%	99.6%	< 0.05 µM	< 0.05 µM		
C[C@H]1C[C@@]2(C[C@@H](c3ccc4oc(=O)n(C)c4c3)N1)OCCc1cc(Cl)sc12 (racemic) [Compound 28]	< 0.05 µM	104%	100.0%	< 0.05 µM	< 0.05 µM		
COCc1cc([C@@H]2C[C@]3(C[C@H](C)N2)OCCc2cc(Cl)sc23)no1 (racemic) [Compound 106]	< 0.05 µM	107%		< 0.05 µM			
C[C@H]1CC2(CC(c3cn(C)cn3)N1)OCC(O)c1cc(Cl)sc12 (stereo in doubt) [Compound 179]	< 0.05 µM		99.0%	< 0.05 µM	< 0.05 µM	119.5%	
CCc1cc2c(s1)CCO[C@@]21C[C@@H](c2cnn(CCS(C)(=O)=O)c2)N[C@@H](C)C1 (stereo in doubt) [Compound 5]	0.05 to 0.5 µM	111%	100.0%	0.05 to 0.5 µM			
C[C@H]1C[C@@]2(C[C@@H](c3cccc(=O)[nH]3)N1)OCCc1cc(Cl)sc12 (racemic) [Compound 151]	> 0.5 µM	85.7%		0.05 to 0.5 µM			
CC(C)c1cc2c(s1)C1(C[C@@H](C)N[C@@H](C)C1)OCC2 (single isomer, unassigned) [Compound 200]	0.05 to 0.5 µM			0.05 to 0.5 µM			98.7%
COCC1CC2(CC(c3cn(C)nn3)N1)OCCc1cc(C(F)(F)F)sc12 (centres unmarked) [Compound 193]	0.05 to 0.5 µM	100%		0.05 to 0.5 µM			
Cc1cccc([C@@H]2C[C@]3(C[C@H](C)N2)OCCc2cc(Cl)sc23)n1 (racemic) [Compound 126]	0.05 to 0.5 µM	115%	99.4%	0.05 to 0.5 µM			
CC1CC2(CC(c3cccnc3)N1)OCCc1cc(Cl)sc12 (racemic) [Compound 20, 2-chloro-2′-methyl-6′-(3-pyridyl)spiro[4,5-dihydrothieno[2,3-c]pyran-7,4′-piperidine]]	< 0.05 µM			< 0.05 µM			116%
CC1CC2(CC(c3cnn(-c4cccnc4)c3)N1)OCCc1cc(Cl)sc12 (centres unmarked) [Compound 40]	< 0.05 µM	118%	100.0%	< 0.05 µM			
Cc1nc([C@@H]2C[C@]3(C[C@H](C)N2)OCCc2cc(Cl)sc23)cn1C (racemic) [Compound 159]	> 0.5 µM	63.5%		> 0.5 µM			

Compound	IC50 (APOL1 G1; Trypanosome Assay)	Emax (APOL1 G1; Trypanosome Assay)	Multi-Tox Assay Max Activity (%) (APOL1)	IC50 (APOL1)	IC90 (APOL1)	Trypanosome Assay Max Activity (%) (APOL1 G1; Trypanosome Assay)	Emax (APOL1 G1)
Cc1nc([C@@H]2C[C@]3(C[C@H](C)N2)OCCc2cc(Cl)sc23)oc1C (racemic) [Compound 144]	0.05 to 0.5 µM	102%	98.0%	0.05 to 0.5 µM			
C[C@H]1C[C@@]2(C[C@@H](c3cnn4c3OCCC4)N1)OCCc1cc(Cl)sc12 (racemic) [Compound 163]	> 0.5 µM	79.5%		> 0.5 µM			
C[C@H]1C[C@@]2(C[C@@H](c3ncccc3O)N1)OCCc1cc(Cl)sc12 (racemic) [Compound 172]	> 0.5 µM	64.5%		> 0.5 µM			
CC(C)c1c[nH]c([C@@H]2C[C@]3(C[C@H](C)N2)OCCc2cc(Cl)sc23)n1 (racemic) [Compound 162]	> 0.5 µM	81%		> 0.5 µM			
Cc1nc([C@@H]2C[C@]3(C[C@H](C)N2)OCCc2cc(Cl)sc23)c[nH]1 (racemic) [Compound 156]	> 0.5 µM	85%		> 0.5 µM			
CCc1cc2c(s1)C1(C[C@@H](C)N[C@@H](C)C1)OCC2 (single isomer, unassigned) [Compound 199]	0.05 to 0.5 µM			< 0.05 µM			110%
CC1CC2(CC(c3cn(C)cn3)N1)OCCc1cc(Cl)sc12 (racemic) [Compound 22]	< 0.05 µM	129%	99.7%	< 0.05 µM	< 0.05 µM		
C[C@@H]1CC2(C[C@H](C)N1)OCCc1sc(C(F)(F)F)cc12 (single isomer, unassigned) [Compound 196]	0.05 to 0.5 µM	111%		0.05 to 0.5 µM			
C[C@H]1C[C@@]2(C[C@@H](c3ccc(C(F)(F)F)nc3)N1)OCCc1cc(Cl)sc12 (racemic) [Compound 123]	< 0.05 µM	104%	100.0%	< 0.05 µM			
C[C@H]1C[C@@]2(C[C@@H](c3cccc(S(N)(=O)=O)c3)N1)OCCc1cc(Cl)sc12 (racemic) [Compound 147]	0.05 to 0.5 µM	93.5%		0.05 to 0.5 µM			
C[C@H]1C[C@@]2(C[C@@H](c3cnn(C4CCS(=O)(=O)C4)c3)N1)OCCc1cc(Cl)sc12 (stereo in doubt) [Compound 97]	< 0.05 µM	104%		< 0.05 µM			
CCc1cc2c(s1)CCOC21C[C@@H](c2cn(C)nn2)N[C@@H](C)C1 (stereo in doubt) [Compound 4]	< 0.05 µM	118%		< 0.05 µM			
CNC(=O)c1cccc(C2CC3(CC(C)N2)OCCc2cc(Cl)sc23)c1 (centres unmarked) [Compound 27]	< 0.05 µM	112%		< 0.05 µM			
CC1CC2(CC(CO)N1)OCCc1cc(Cl)sc12 (mixture of isomers) [Compound 210, (2-chloro-6′-methyl-spiro[4,5-dihydrothieno[2,3-c]pyran-7,4′-piperidine]-2′-yl)methanol]	> 0.5 µM	104%		> 0.5 µM			
C[C@H]1C[C@@]2(C[C@@H](c3cnc4c(cnn4C)c3)N1)OCCc1cc(Cl)sc12 (racemic) [Compound 26]	< 0.05 µM	110%	100.0%	< 0.05 µM			
C[C@H]1C[C@@]2(C[C@@H](c3cnc(NC(C)(C)CO)nc3)N1)OCCc1cc(Cl)sc12 (racemic) [Compound 95]	0.05 to 0.5 µM	106%		< 0.05 µM			
